Results on 9 compounds are retold here after patent US20250312352A1, “GLP-1R MODULATING COMPOUNDS” (Gilead Sciences, Inc., priority 2021, published 2025).

For the assay, the target named is T1, GLP-1R (Homo sapiens, UniProt P43220).
T1 construct: host or cells: CHO cells
T1 sequence (P43220 24-463): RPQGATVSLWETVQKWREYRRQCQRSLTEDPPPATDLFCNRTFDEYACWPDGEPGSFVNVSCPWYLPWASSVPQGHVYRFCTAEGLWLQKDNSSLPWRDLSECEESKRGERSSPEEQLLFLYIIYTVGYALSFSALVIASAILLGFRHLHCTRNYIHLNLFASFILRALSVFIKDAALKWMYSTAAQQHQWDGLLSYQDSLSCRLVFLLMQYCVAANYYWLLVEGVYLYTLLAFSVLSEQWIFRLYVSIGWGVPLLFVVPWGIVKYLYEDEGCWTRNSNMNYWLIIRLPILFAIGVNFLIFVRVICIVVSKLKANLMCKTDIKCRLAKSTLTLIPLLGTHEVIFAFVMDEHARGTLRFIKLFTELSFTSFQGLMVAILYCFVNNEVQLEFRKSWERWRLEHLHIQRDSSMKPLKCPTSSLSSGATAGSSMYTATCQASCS
Description: GLP-1R activation cAMP assay (Assay 1 or Assay 2). The format is cell-based. The following applies: cAMP increase in CHO cells stably expressing GLP-1R; compounds run on one of the two cAMP assays. Put shortly:
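CHO cells stably expressing human GLP-1R were incubated 1 h in HBSS/20 mM HEPES/0.1% BSA, then exposed to 10-point agonist dilutions for 30 min at 37 °C. cAMP increase was measured with an HTRF Gs dynamic kit; EC50 from sigmoidal fit of response versus log concentration.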
(In general: cAMP levels reflect the balance of adenylyl cyclase and phosphodiesterase activity.)
One may read the EC50 as the concentration that produces a half-maximal response. A higher EC50 goes with lower potency in that assay. On to `O=C(O)c1ccc2nc(Cc3cc(F)c(-c4cccc(OCc5cnc(-c6cnn(C7CC7)c6)cc5F)n4)cc3F)n(C[C@@H]3CCO3)c2c1` [Example 161, (S)-2-(4-(6-((6-(1-cyclopropyl-1H-pyrazol-4-yl)-4-fluoropyridin-3-yl)methoxy)pyridin-2-yl)-2,5-difluorobenzyl)-1-(oxetan-2-ylmethyl)-1H-benzo[d]imidazole-6-carboxylic acid], for which the EC50 stood at 0.08 nM. `O=C(O)c1ccc2nc(Cc3cc(F)c(-c4cccc(OCc5ncc(-c6cnccn6)s5)n4)cc3F)n(C[C@@H]3CCO3)c2c1` [Example 106, (S)-2-(2,5-difluoro-4-(6-((5-(pyrazin-2-yl)thiazol-2-yl)methoxy)pyridin-2-yl)benzyl)-1-(oxetan-2-ylmethyl)-1H-benzo[d]imidazole-6-carboxylic acid]: a half-maximal response (EC50) required 0.14 nM.

For `O=C(O)c1ccc2nc(Cc3cc(F)c(-c4cccc(OCc5ccc(-c6cn(C78CC(C7)C8)nn6)cc5F)n4)cc3F)n(C[C@@H]3CCO3)c2c1` [Example 216, (S)-2-(4-(6-((4-(1-(bicyclo[1.1.1]pentan-1-yl)-1H-1,2,3-triazol-4-yl)-2-fluorobenzyl)oxy)pyridin-2-yl)-2,5-difluorobenzyl)-1-(oxetan-2-ylmethyl)-1H-benzo[d]imidazole-6-carboxylic acid], the EC50 turned out to be 0.72 nM.

With `O=C(O)c1ccc2nc(Cc3cc(F)c(-c4cccc(OCc5cc6ccccn6n5)n4)cc3F)n(C[C@@H]3CCO3)c2c1` [Example 28, (S)-2-(2,5-difluoro-4-(6-(pyrazolo[1,5-a]pyridin-2-ylmethoxy)pyridin-2-yl)benzyl)-1-(oxetan-2-ylmethyl)-1H-benzo[d]imidazole-6-carboxylic acid], the midpoint of the response, the EC50, lay at 0.44 nM. As for `C[C@H](C#N)NC(=O)c1cc(Cl)c(COc2cccc(-c3cc(F)c(Cc4nc5ccc(C(=O)O)cc5n4C[C@@H]4CCO4)cc3F)n2)cn1` [Example 200, 2-(4-(6-((4-chloro-6-(((R)-1-cyanoethyl)carbamoyl)pyridin-3-yl)methoxy)pyridin-2-yl)-2,5-difluorobenzyl)-1-(((S)-oxetan-2-yl)methyl)-1H-benzo[d]imidazole-6-carboxylic acid], the figure is 0.24 nM. In turn, `O=C(O)c1ccc2nc(Cc3cc(F)c(-c4cccc(OCc5ccc(-c6cn(C7COC7)nn6)cc5F)n4)cc3F)n(C[C@@H]3CCO3)c2c1` [Example 215, (S)-2-(2,5-difluoro-4-(6-((2-fluoro-4-(1-(oxetan-3-yl)-1H-1,2,3-triazol-4-yl)benzyl)oxy)pyridin-2-yl)benzyl)-1-(oxetan-2-ylmethyl)-1H-benzo[d]imidazole-6-carboxylic acid] returned an EC50 of 0.18 nM. Compound `O=C(O)c1ccc2nc(Cc3cc(F)c(-c4cccc(OCc5ncc(C#Cc6cn[nH]c6)cc5F)n4)cc3F)n(C[C@@H]3CCO3)c2c1` [Example 286, (S)-2-(4-(6-((5-((1H-pyrazol-4-yl)ethynyl)-3-fluoropyridin-2-yl)methoxy)pyridin-2-yl)-2,5-difluorobenzyl)-1-(oxetan-2-ylmethyl)-1H-benzo[d]imidazole-6-carboxylic acid] returned an EC50 of 0.042 nM.

`COCc1nnc(COc2cccc(-c3cc(F)c(Cc4nc5ccc(C(=O)O)cc5n4C[C@@H]4CCO4)cc3F)n2)s1` [Example 298, (S)-2-(2,5-difluoro-4-(6-((5-(methoxymethyl)-1,3,4-thiadiazol-2-yl)methoxy)pyridin-2-yl)benzyl)-1-(oxetan-2-ylmethyl)-1H-benzo[d]imidazole-6-carboxylic acid] gave an EC50 of 0.466 nM. For `NC(=O)c1ccc(COc2cccc(-c3cc(F)c(Cc4nc5ccc(C(=O)O)cc5n4C[C@@H]4CCO4)cc3F)n2)o1` [Example 171, (S)-2-(4-(6-((5-carbamoylfuran-2-yl)methoxy)pyridin-2-yl)-2,5-difluorobenzyl)-1-(oxetan-2-ylmethyl)-1H-benzo[d]imidazole-6-carboxylic acid] the value was 2.94 nM.
